Experimental data published in patent publication US20180188258A1, “MARKER FOR HETEROGENEITY OF CANCER TISSUE, AND USE THEREOF” (Keio University, priority 2015, published 2018).

Tested on: cancer tissue of the Mix mouse (MDA-MB-231 + HCC1937 cells) and of the 231 mouse (MDA-MB-231 cells)
Assay: Study on therapeutic effects by anticancer drug in tumor-bearing mice (tumor volume over time)
Assay type: in vivo
Settings: Paclitaxel 3 mg/kg intraperitoneally once a week; Mix mouse compared with 231 mouse; BALB/c-nu; control physiological saline
Description: The MDA-MB-231 cell line and the HCC1937 cell line were mixed so that the cell number of the HCC1937 cell line was larger than the cell number of the MDA-MB-231 cell line, preferably the cell number of HCC1937 cell line:cell number of MDA-231 cell line was a ratio of 2:1 or more, for example, 9:1. Then, the cell mixture was transplanted into the fourth mammary gland adipose tissue of an immunodeficient mouse (4 weeks old, female, BALB/c-nu) to thereby construct a tumor-bearing mouse (hereinafter, sometimes referred to as “Mix mouse”). Only the MDA-MB-231 cell line and only the HCC1937 cell line were respectively transplanted into the fourth mammary gland adipose tissue of an immunodeficient mouse (4 weeks old, female, BALB/c-nu) to thereby construct tumor-bearing mice (hereinafter, sometimes referred to as “231 mouse” and “1937 mouse”, respectively) as controls.
Paclitaxel (3 mg/kg) was administered intraperitoneally once a week to Mix mouse and 231 mouse constructed in the same manner as in Experimental Example 2, the tumor diameter was measured with time, and temporal changes in tumor volume were observed (n=5 in each case). As controls, temporal changes in tumor volume were also observed for the groups (control groups) in which physiological saline was administered intraperitoneally in place of paclitaxel (n=5 in each case). […]

## CC(=O)O[C@H]1C(=O)[C@@]2(C)[C@H]([C@H](OC(=O)c3ccccc3)[C@]3(O)C[C@H](OC(=O)[C@H](O)[C@@H](NC(=O)c4ccccc4)c4ccccc4)C(C)=C1C3(C)C)[C@]1(OC(C)=O)CO[C@@H]1C[C@@H]2O [Paclitaxel]
  temporal changes in tumor volume (resistance of the cancer tissue to paclitaxel): the cancer tissue of the Mix mouse has higher resistance to paclitaxel than the cancer tissue of the 231 mouse
